In assay [1] the target is T1, fMet-Leu-Phe receptor (Homo sapiens, UniProt P21462).
T1 sequence (P21462 whole entry): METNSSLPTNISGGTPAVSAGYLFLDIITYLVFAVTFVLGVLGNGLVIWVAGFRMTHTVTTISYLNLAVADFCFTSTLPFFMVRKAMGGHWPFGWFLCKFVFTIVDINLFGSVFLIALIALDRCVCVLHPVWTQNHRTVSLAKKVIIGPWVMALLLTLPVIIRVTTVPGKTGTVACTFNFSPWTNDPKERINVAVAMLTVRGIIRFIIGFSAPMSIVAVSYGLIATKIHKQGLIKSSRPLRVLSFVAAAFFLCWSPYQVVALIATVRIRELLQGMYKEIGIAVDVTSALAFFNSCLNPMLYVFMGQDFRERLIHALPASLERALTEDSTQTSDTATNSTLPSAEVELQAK

Assay [2] addresses T2, N-formyl peptide receptor 2 (Homo sapiens, UniProt P25090).
T2 sequence (P25090 whole entry): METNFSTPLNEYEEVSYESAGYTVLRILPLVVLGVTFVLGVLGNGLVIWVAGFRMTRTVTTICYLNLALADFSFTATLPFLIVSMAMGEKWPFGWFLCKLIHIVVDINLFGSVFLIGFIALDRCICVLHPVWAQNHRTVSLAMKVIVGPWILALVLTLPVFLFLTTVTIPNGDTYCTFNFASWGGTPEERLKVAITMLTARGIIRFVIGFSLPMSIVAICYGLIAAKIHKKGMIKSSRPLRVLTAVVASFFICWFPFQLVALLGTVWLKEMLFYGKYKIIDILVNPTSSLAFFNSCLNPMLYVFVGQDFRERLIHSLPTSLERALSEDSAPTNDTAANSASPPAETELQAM

In general, EC50 refers to the concentration that produces a half-maximal response. A lower EC50 goes with greater potency. Take `COc1cc(F)c(-n2cc(C3CCOCC3)nc2NC(=O)c2ccc(OC(F)F)cc2)c(F)c1` [WO2022076764, Example 41]: the values for the EC50 in assay [1] and in assay [2] were 26 nM and 230 nM, respectively.
In the case of `COc1ccc(-n2cc(-c3ccc(F)cc3F)nc2NC(=O)c2ccc(OC(F)F)cc2)cc1` [WO2022076764, Example 21], the figures for the EC50 in assay [1] and in assay [2] were 29 nM and 76 nM, respectively.
Regarding `CCOC(=O)c1cc(-c2cn(-c3ccc(OC)cc3)c(NC(=O)c3ccc(OC(F)F)cc3)n2)on1` [WO2022076764, Example 29], the EC50 in assay [1] turned out to be 15 nM; in assay [2], 32 nM.
The like results for `COc1cc(F)c(-n2cc(C3CCC(O)CC3)nc2NC(=O)c2ccc(OC(F)F)cc2)c(F)c1` (stereo unspecified) [WO2022076764, Example 76] were, in that order, 10 nM and 240 nM.
For the molecule `COc1ccc(-n2cc(C3CCCCC3)nc2NC(=O)c2ccc(OC(F)F)cc2)cc1` [WO2022076764, Example 27], the EC50 worked out at 55 nM in assay [1] and 660 nM in assay [2].
The matching figures for `COc1cc(F)c(-n2cc(Cc3ccccc3)nc2NC(=O)c2ccc(OC(F)F)cc2)c(F)c1` [WO2022076764, Example 71]: 46 nM and 1300 nM.
The like results for `COc1cc(F)c(-n2cc(-c3ccc(OC(F)F)cc3)nc2NC(=O)c2ccc(OC(F)F)cc2)c(F)c1` [WO2022076764, Example 7] were, in that order, 33 nM and 190 nM.
The matching figures for `COc1ccc(-n2cc(C34CC5CC(CC(C5)C3)C4)nc2NC(=O)c2ccc(OC(F)F)cc2)cc1` [WO2022076764, Example 31]: 320 nM and above 10000 nM.
As to `COc1cc(F)c(-n2cc(C3CC3)nc2NC(=O)c2ccc(OC(F)F)cc2)c(F)c1` [WO2022076764, Example 37], the EC50 in assay [1] is 16 nM; in assay [2], 800 nM.
For the molecule `COc1ccc(-n2cc(-c3ccccc3)nc2NC(=O)c2ccc(OC(F)F)cc2)cc1` [WO2022076764, Example 2], the EC50 in assay [1] was 3 nM; in assay [2] it was 38 nM.
The matching figures for `CCS(=O)(=O)N1CCC(c2cn(-c3c(F)cc(OC)cc3F)c(NC(=O)c3ccc(OC(F)F)cc3)n2)CC1` [WO2022076764, Example 65]: 81 nM and 320 nM.
In the case of `COc1cc(F)c(-n2cc(-c3ccccc3F)nc2NC(=O)c2ccc(OC(F)F)cc2)c(F)c1` [WO2022076764, Example 25], the EC50 in assay [1] was found to be 6 nM; in assay [2], 47 nM.
The like results for `COc1cc(F)c(-n2cc(C(F)(F)C(F)(F)F)nc2NC(=O)c2ccc(OC(F)F)cc2)c(F)c1` [WO2022076764, Example 42] were, in that order, 48 nM and 57 nM.
For the molecule `COc1ccc(-n2cc(-c3ccc4sccc4c3)nc2NC(=O)c2ccc(OC(F)F)cc2)cc1` [WO2022076764, Example 22], the EC50 in assay [1] was 86 nM; in assay [2] it was 140 nM.
The matching figures for `COc1cc(F)c(-n2cc(-c3ccc(Cl)c(Cl)c3)nc2NC(=O)c2ccc(OC(F)F)cc2)c(F)c1` [WO2022076764, Example 18]: 51 nM and 400 nM.
The matching figures for `COc1cc(F)c(-n2cc(C(=O)N3CCOCC3)nc2NC(=O)c2ccc(OC(F)F)cc2)c(F)c1` [WO2022076764, Example 54]: 320 nM and above 10000 nM.
On to `COc1cc(F)c(-n2cc(-c3ccc4ccccc4c3)nc2NC(=O)c2ccc(OC(F)F)cc2)c(F)c1` [WO2022076764, Example 9], for which the EC50 in assay [1] is 220 nM; in assay [2], 460 nM.
The like results for `COc1cc(F)c(-n2cc(-c3ccn[nH]3)nc2NC(=O)c2ccc(OC(F)F)cc2)c(F)c1` [WO2022076764, Example 80] were, in that order, 59 nM and 500 nM.
The like results for `COc1cc(F)c(-n2cc(C3CCNCC3)nc2NC(=O)c2ccc(OC(F)F)cc2)c(F)c1` [WO2022076764, Example 63] were, in that order, 10 nM and 710 nM.
As to `COc1ccc(-n2cc(-c3nc4cc(Cl)ccc4o3)nc2NC(=O)c2ccc(OC(F)F)cc2)cc1` [WO2022076764, Example 26], the EC50 came out at 72 nM in assay [1] and 400 nM in assay [2].
The like results for `COc1ccc(-n2cc(C3CCCNC3)nc2NC(=O)c2ccc(OC(F)F)cc2)cc1` (stereo unspecified) [WO2022076764, Example 64] were, in that order, 11 nM and 210 nM.
As to `COc1cc(F)c(-n2cc(C(C)C)nc2NC(=O)c2ccc(OC(F)F)cc2)c(F)c1` [WO2022076764, Example 70], the EC50 worked out at 31 nM in assay [1] and 970 nM in assay [2].
For the molecule `COc1cc(F)c(-n2cc(-c3ccc(Cl)cc3)nc2NC(=O)c2ccc(OC(F)F)cc2)c(F)c1` [WO2022076764, Example 11], the EC50 in assay [1] stood at 24 nM; in assay [2], 140 nM.
The like results for `COc1cc(F)c(-n2cc(C3CC(N)C3)nc2NC(=O)c2ccc(OC(F)F)cc2)c(F)c1` (stereo unspecified) [WO2022076764, Example 81] were, in that order, 4 nM and 5400 nM.
For `COc1cc(F)c(-n2cc(-c3ccnc(Cl)c3)nc2NC(=O)c2ccc(OC(F)F)cc2)c(F)c1` [WO2022076764, Example 34], the results for the EC50 in assay [1] and in assay [2] were 16 nM and 120 nM, respectively.
The like results for `COc1cc(F)c(-n2cc(-c3cccc(C#N)c3)nc2NC(=O)c2ccc(OC(F)F)cc2)c(F)c1` [WO2022076764, Example 17] were, in that order, 5 nM and 46 nM.
The matching figures for `CCOC(=O)c1cn(-c2ccc(OC)cc2)c(NC(=O)c2ccc(OC(F)F)cc2)n1` [WO2022076764, Example 30]: 9 nM and 100 nM.
The matching figures for `COc1cc(F)c(-n2cc(C(=O)NCc3cccnc3)nc2NC(=O)c2ccc(OC(F)F)cc2)c(F)c1` [WO2022076764, Example 47]: 35 nM and 110 nM.
As for `COc1cc(F)c(-n2cc(-c3nccs3)nc2NC(=O)c2ccc(OC(F)F)cc2)c(F)c1` [WO2022076764, Example 40], the figures for the EC50 in assay [1] and in assay [2] were 11 nM and 1000 nM, respectively.
The matching figures for `COc1cc(F)c(-n2cc(C(=O)NCCO)nc2NC(=O)c2ccc(OC(F)F)cc2)c(F)c1` [WO2022076764, Example 53]: 130 nM and 4100 nM.
As for `COc1cc(F)c(-n2cc(Cc3ccccn3)nc2NC(=O)c2ccc(OC(F)F)cc2)c(F)c1` [WO2022076764, Example 78], the EC50 in assay [1] was 56 nM; in assay [2] it was 870 nM.
The matching figures for `COc1cc(F)c(-n2cc(C(=O)N3CCC[C@H]3CO)nc2NC(=O)c2ccc(OC(F)F)cc2)c(F)c1` [WO2022076764, Example 50]: 77 nM and above 10000 nM.
The matching figures for `COc1cc(F)c(-n2c(NC(=O)c3ccc(OC(F)F)cc3)nc(-c3ccc(Cl)cc3)c2C)c(F)c1` [WO2022076764, Example 13]: 53 nM and 550 nM.
The like results for `COc1cc(F)c(-n2cc(-c3ccccc3)nc2NC(=O)c2ccc(OC(F)F)cc2)c(F)c1` [WO2022076764, Example 1] were, in that order, 4 nM and 200 nM.
For `COc1cc(F)c(-n2cc(C(=O)N3CCN(C)CC3)nc2NC(=O)c2ccc(OC(F)F)cc2)c(F)c1` [WO2022076764, Example 55], the EC50 in assay [1] is 280 nM; in assay [2], above 10000 nM.
The like results for `COc1cc(F)c(-n2cc(C(=O)NCc3cnc(C)cn3)nc2NC(=O)c2ccc(OC(F)F)cc2)c(F)c1` [WO2022076764, Example 56] were, in that order, 89 nM and 110 nM.
On to `COc1cc(F)c(-n2cc(C3CC(NS(C)(=O)=O)C3)nc2NC(=O)c2ccc(OC(F)F)cc2)c(F)c1` (stereo unspecified) [WO2022076764, Example 83], for which the EC50 was determined as 5 nM in assay [1] and 400 nM in assay [2].
The matching figures for `COc1cc(F)c(-n2cc(C3CCN(C(=O)CCO)CC3)nc2NC(=O)c2ccc(OC(F)F)cc2)c(F)c1` [WO2022076764, Example 68]: 45 nM and 110 nM.
Consider `COc1ccc(-n2cc(C(=O)NCCCO)nc2NC(=O)c2ccc(OC(F)F)cc2)cc1` [WO2022076764, Example 46], for which the EC50 in assay [1] turned out to be 27 nM; in assay [2] it was 210 nM.
Regarding `COc1ccc(-n2cc(-c3nccs3)nc2NC(=O)c2ccc(OC(F)F)cc2)cc1` [WO2022076764, Example 24], the EC50 was 9 nM in assay [1] and 110 nM in assay [2].
The like results for `COc1ccc(-n2cc(C(=O)N3CCNCC3)nc2NC(=O)c2ccc(OC(F)F)cc2)cc1` [WO2022076764, Example 45] were, in that order, 14 nM and 710 nM.
Consider `COc1cc(F)c(-n2cc(C(=O)NCC3CCC(O)CC3)nc2NC(=O)c2ccc(OC(F)F)cc2)c(F)c1` (stereo unspecified) [WO2022076764, Example 49], for which the EC50 in assay [1] came to 90 nM; in assay [2], 750 nM.
The like results for `COc1cc(F)c(-n2cc(C(=O)Nc3cn[nH]c3)nc2NC(=O)c2ccc(OC(F)F)cc2)c(F)c1` [WO2022076764, Example 62] were, in that order, 32 nM and 830 nM.
